ChEMBL document CHEMBL1156713, “NSAIDs revisited: putative molecular basis of their interactions with peroxisome proliferator-activated gamma receptor (PPARgamma)” (Eur J Med Chem, 2008)
Blank lines part the entries; values can stand above or below the compound they belong to.

Legend:
[1] = molecular target: T1, Peroxisome proliferator-activated receptor gamma (Homo sapiens) (UniProt P37231); experiment: Activity at PPARgamma in human Caco-2 cells assessed as luciferase activity at 400 uM relative to control; type: cell-based
T1 sequence (whole entry): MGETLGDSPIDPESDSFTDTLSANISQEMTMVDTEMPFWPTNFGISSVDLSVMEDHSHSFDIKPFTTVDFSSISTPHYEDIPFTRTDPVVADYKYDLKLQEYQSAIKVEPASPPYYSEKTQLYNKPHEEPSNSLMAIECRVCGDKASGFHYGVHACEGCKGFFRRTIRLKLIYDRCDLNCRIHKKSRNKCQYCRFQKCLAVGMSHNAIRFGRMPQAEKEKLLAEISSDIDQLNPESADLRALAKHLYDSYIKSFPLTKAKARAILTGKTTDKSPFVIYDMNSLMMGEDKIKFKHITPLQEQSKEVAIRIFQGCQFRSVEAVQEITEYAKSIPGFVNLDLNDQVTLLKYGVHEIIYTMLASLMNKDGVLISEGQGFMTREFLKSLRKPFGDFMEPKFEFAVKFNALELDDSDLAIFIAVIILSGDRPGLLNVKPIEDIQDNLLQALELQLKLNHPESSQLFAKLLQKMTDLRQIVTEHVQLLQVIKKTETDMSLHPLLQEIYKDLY

[2] = molecular target: T1, Peroxisome proliferator-activated receptor gamma (Homo sapiens); experiment: Activity at PPARgamma in human Caco-2 cells assessed as luciferase activity at 50 uM relative to control; type: cell-based
[3] = molecular target: T1, Peroxisome proliferator-activated receptor gamma (Homo sapiens); experiment: Activity at PPARgamma in human Caco-2 cells assessed as luciferase activity at 10000 uM relative to control; type: cell-based
[4] = molecular target: T1, Peroxisome proliferator-activated receptor gamma (Homo sapiens); experiment: Activity at PPARgamma in human Caco-2 cells assessed as luciferase activity at 1000 uM relative to control; type: cell-based
[5] = molecular target: T1, Peroxisome proliferator-activated receptor gamma (Homo sapiens); experiment: Activity at PPARgamma in human Caco-2 cells assessed as luciferase activity at 100 uM relative to control; type: cell-based
[6] = Ratio of IC50 for COX1 to IC50 for COX2

SMILES: CC1=C(CC(=O)O)c2cc(F)ccc2/C1=C\c1ccc(S(C)(=O)=O)cc1
fold change (FC) [1]: 3.33

SMILES: COc1ccc2c(c1)c(CC(=O)O)c(C)n2C(=O)c1ccc(Cl)cc1
fold change (FC) [2]: 6.43

SMILES: CC1=C(CC(=O)O)c2cc(F)ccc2/C1=C\c1ccc([S+](C)[O-])cc1 (configuration not stated)
fold change (FC) [5]: 2.51

SMILES: CN1C(C(=O)Nc2ccccn2)=C(O)c2ccccc2S1(=O)=O
fold change (FC) [4]: 1.92

SMILES: CSc1ccc(/C=C2/C(C)=C(CC(=O)O)c3cc(F)ccc32)cc1
Ratio IC50 [6]: 0.258

Next, values leading:

fold change (FC) [3]: 4.02
SMILES: CC(=O)Oc1ccccc1C(=O)O

fold change (FC) [4]: 5.81
SMILES: CC(C)Cc1ccc(C(C)C(=O)O)cc1 (configuration not stated)
